Laboratory results from patent US20230061859A1, “PYRIDO[2,3-D]PYRIMIDINE HIV-1 REVERSE TRANSCRIPTASE INHIBITOR WB3, PREPARATION METHOD AND APPLICATION THEREOF” (SHAN DONG UNIVERSITY, priority 2020, published 2023).

Assays:
[1] = test system: HIV-1 mutant strain RV1 (K101E+Y181V); test: Anti-HIV activity, luciferase single-round infection of TZM-bl cells, RV-1; format: cell-based; settings: Human immunodeficiency virus 1, TZM-bl, read-out: EC50 RV-1
Procedure: (§1) The target compound WB3 was evaluated its activity against HIV-1 NL4-3, HIV-1 mutant strains GH9 (K101P+K103N+V108I), RV1 (K101E+Y181V), RV2 (K101E+Y181C+G190A), RV3 (K101E+Y181C+E138K), RV4 (L100I+M230I) and RV5 (M230L). Rilpivirine (RPV) was selected as control drug.
(§2) Inhibition of HIV-1 infection was measured as reduction in luciferase gene expression after a single round of virus infection of TZM-bl cells. Briefly, 200 TCID50 of virus (NL4-3, GH9, RV-1, RV-2, RV-3, RV-4 and RV-5) was used to infect TZM-bl cells in the presence of various concentrations of compounds. Two days after infection, the culture medium was removed from each well and 100 μL of Bright Glo reagent (Promega, Luis Obispo, Calif.) was added to the cells for measurement of luminescence with a Victor 2 luminometer. […] The cytotoxicity of compounds was determined using a colorimetric 2,3-bis-(2-methoxy-4-nitro-5-sulfophenyl)-2H-tetrazolium-5-carboxanilide (XTT) assay. An amount of 100 μL of the test compounds at graded concentrations was added to equal volumes of cells (5×10^5/mL) in wells of a 96-well plate. Incubation at 37° C. for four days, then 50 μL of XTT solution (1 mg/mL) containing 0.02 μM phenazine methosulfate (PMS) was added. After four hours, the absorbance at 450 nm was measured with an ELISA reader. The CC50 values were calculated using the CalsuSyn computer program as described above.

[2] = test system: HIV-1 mutant strain RV5 (M230L); test: Anti-HIV activity, luciferase single-round infection of TZM-bl cells, RV-5; format: cell-based; settings: Human immunodeficiency virus 1, TZM-bl, read-out: EC50 RV-5
Procedure: as §1, §2

Cytotoxicity, XTT assay = format: cell-based; settings: human, mock-infected TZM-bl cells
Procedure: as §2

[3] = test system: HIV-1 mutant strain RV4 (L100I+M230I); test: Anti-HIV activity, luciferase single-round infection of TZM-bl cells, RV-4; format: cell-based; settings: Human immunodeficiency virus 1, TZM-bl, read-out: EC50 RV-4
Procedure: as §1, §2

[4] = test system: HIV-1 mutant strain RV3 (K101E+Y181C+E138K); test: Anti-HIV activity, luciferase single-round infection of TZM-bl cells, RV-3; format: cell-based; settings: Human immunodeficiency virus 1, TZM-bl, read-out: EC50 RV-3
Procedure: as §1, §2

[5] = test system: HIV-1 NL4-3 (wild-type HIV-1 viral strain); test: Anti-HIV activity, luciferase single-round infection of TZM-bl cells, NL4-3; format: cell-based; settings: Human immunodeficiency virus 1, NL43, wild-type HIV-1 NL4-3
Procedure: as §1, §2

[6] = test system: HIV-1 mutant strain RV2 (K101E+Y181C+G190A); test: Anti-HIV activity, luciferase single-round infection of TZM-bl cells, RV-2; format: cell-based; settings: Human immunodeficiency virus 1, TZM-bl, read-out: EC50 RV-2
Procedure: as §1, §2

[7] = test system: HIV-1 mutant strain GH9 (K101P+K103N+V108I); test: Anti-HIV activity, luciferase single-round infection of TZM-bl cells, GH9; format: cell-based; settings: for EC50: Human immunodeficiency virus 1, TZM-bl, read-out: EC50 GH9
Procedure: as §1, §2

[8] = Pharmacokinetics by single iv and po administration in Wistar rats; format: in vivo
Procedure: Then, WB3 was evaluated its pharmacokinetics profiles by single iv and po administration in Wistar rats. […] These favorable PK results are sufficient to support the ability of WB3 to become an orally bioavailable NNRTIs drug candidate.
All the samples were then centrifuged at 8000 rpm for 8 min to separate plasma, which was stored at −78° C. until analysis. […] Standard curves for WB3 in blood were generated by the addition of various concentrations of WB3 together with internal standard to blank plasma.
The plasma pharmacokinetic data were analyzed by using the […] of DAS 2.0 pharmacokinetic program. The main pharmacokinetic parameters (Cmax, AUC, Tmax, T1/2, and CL) were calculated.

Row | Compound | EC50 [1] [nM] | EC50 [2] [nM] | CC50 at 4 days (Cytotoxicity, XTT assay) [nM] | EC50 [3] [nM] | EC50 [4] [nM] | EC50 [5] [nM] | EC50 [6] [nM] | EC50 [7] [nM] | fold potency versus rilpivirine against GH9 ([7]; EC50 ratio to rilpivirine, GH9 strain) | CL ([8]; iv 2 mg/kg (Table 2)) [mL] | Cmax ([8]; male, rat, plasma, iv 2 mg/kg) [ng/mL]
1 | Cc1cc(/C=C/C#N)cc(C)c1Nc1ccnc(Nc2ccc(C#N)cc2)n1 [RPV, Rilpivirine, reference compound] | 45.6 ± 12.6 | 10.4 ± 3.27 | > 341 | 9.82 ± 2.35 | 88.1 ± 37.4 | 0.96 ± 0.3 | 24.3 ± 5.73 | > 273 | – | – | –
2 | Cc1cc(/C=C/C#N)cc(C)c1Oc1nc(NC2CCN(Cc3ccc(S(C)(=O)=O)cc3)CC2)nc2ncccc12 [WB3] | 18.3 ± 5.8 | 6.15 ± 2.29 | > 44 | 9.32 ± 2.46 | > 106 | 1.16 | 29 ± 10.9 | 1.37 | up to 200 fold | 20.6 ± 4.50 | 1490
